Tests used:
[1] = test system: Pseudomonas aeruginosa; test: test microbial suspension shaken with aqueous extract, number of microbes determined; format: cell-based; details: contact time of 4 hours, starting number 10^7, 2 mL of 24 h water extract (37° C.) in 20 mL suspension (solvent control: 0.5 mL neat)
Experimental: The supernatant liquor is then filtered through a 0.2 micrometer pore filter. 2 mL of this solution are shaken with 20 mL of a test microbial suspension of Pseudomonas aeruginosa. […] The solvent is removed at 35° C. over a period of 48 hours in a drying cabinet, so that a polymer film remains on the base of the glass beaker. This film is extracted for 24 hours with 200 mL of water heated to 37° C. 2 mL of this solution are shaken with 20 mL of a test microbial suspension of Pseudomonas aeruginosa. […] Over a period of 14 days, the film is extracted as described above, each time for 24 hours, with 200 mL of water heated to 37° C., and the water is then subjected to microbiological testing. All of the determinations show a fall of from 4 to 5 logarithmic levels in the number of microbes. […] The solvent is removed over a period of 48 hours at 35° C. in a drying cabinet, so that a polymer film remains on the base of the glass beaker. The film is then dried for 24 hours at 5 mbar at 50° C. in a vacuum drying cabinet. This film is extracted for 24 hours with 200 mL of water heated to 37° C. 2 mL of this solution are shaken with 20 mL of a test microbial suspension of Pseudomonas aeruginosa. […] The solvent is removed over a period of 48 hours at 35° C. in a drying cabinet so that a polymer film remains on the base of the glass beaker. […]

[2] = test system: Staphylococcus aureus; test: as above; format: cell-based; details: contact time of 4 hours, starting number 10^7, 2 mL of 24 h water extract (37° C.) in 20 mL suspension (solvent control: 0.5 mL neat)
Experimental: 2 mL of this solution are shaken with 20 mL of a test microbial suspension of Staphylococcus aureus. After a contact time of 4 hours, 1 mL of the test microbial suspension is removed, and the number of microbes in the test mixture is determined.
This film is extracted for 24 hours with 200 mL of water heated to 37° C. 2 mL of this solution are shaken with 20 mL of a test microbial suspension of Staphylococcus aureus. After a contact time of 4 hours, 1 mL of the test microbial suspension is removed, and the number of microbes in the test mixture is determined. […] Over a period of 14 days, the film is extracted as described above, each time for 24 hours, with 200 mL of water heated to 37° C., and the water is then subjected to microbiological testing.
This film is extracted for 24 hours with 200 mL of water heated to 37° C. 2 mL of this solution are shaken with 20 mL of a test microbial suspension of Staphylococcus aureus. After a contact time of 4 hours, 1 mL of the test microbial suspension is removed, and the number of microbes in the test mixture is determined.

C1CCCCC1 [cyclohexane]
number of microbes in the test mixture [1]: 10^7 microbes per mL

CCO [ethanol]
number of microbes in the test mixture [2]: 10^7 microbes per mL
